Measurements: ChEMBL document CHEMBL3868641, “Discovery, characterization and biological evaluation of a novel (R)-4,4-difluoropiperidine scaffold as dopamine receptor 4 (D4R) antagonists” (Bioorg Med Chem Lett, 2016)

Tests used:
CHO-K1 [1] = assay: Displacement of [3H] Spiperone from recombinant human Dopamine D4.4 receptor expressed in CHO-K1 cell membranes at 0.1 uM after 120 mins relative to control
[2] = Displacement of [3H]Spiperone from recombinant human Dopamine D4.4 receptor expressed in CHO-K1 cell membranes after 120 mins
[3] = Unbound fraction in rat plasma by HPLC/MS based equilibrium dialysis method; type: ADME, cell-free
[4] = Drug uptake in rat brain at 0.25 mg/kg, iv administered through cassette dosing after 0.25 hrs by LC/MS/MS analysis; type: ADME, organism-based; conditions: for concentration at 0.25 h: brain, read-out: Drug uptake
[5] = Intrinsic clearance in human liver microsomes by HPLC/MS analysis; type: ADME; conditions: read-out: CLH
[6] = Displacement of [3H]Spiperone from recombinant human Dopamine D4.4 receptor expressed in CHO-K1 cell membranes at 10 uM after 120 mins relative to control
[7] = Intrinsic clearance in rat liver microsomes by HPLC/MS analysis; type: ADME; conditions: read-out: CLH
[8] = Plasma concentration in rat at 0.25 mg/kg, iv administered through cassette dosing after 0.25 hrs by LC/MS/MS analysis; type: ADME, organism-based
[9] = Unbound fraction in human plasma by HPLC/MS based equilibrium dialysis method; type: ADME, cell-free
[10] = Displacement of [3H] Spiperone from recombinant human Dopamine D4.4 receptor expressed in CHO-K1 cell membranes at 1 uM after 120 mins relative to control
[11] = Ratio of drug level in brain to plasma in rat at 0.25 mg/kg, iv administered through cassette dosing after 0.25 hrs by LC/MS/MS analysis; type: ADME, organism-based
[12] = biological target: D(2) dopamine receptor (Homo sapiens) (UniProt P14416); assay: Displacement of [3H]Spiperone from recombinant human Dopamine D2L receptor expressed in CHO cell membranes at 10 uM after 120 mins relative to control
Chain of D(2) dopamine receptor (Homo sapiens) (P14416 whole entry): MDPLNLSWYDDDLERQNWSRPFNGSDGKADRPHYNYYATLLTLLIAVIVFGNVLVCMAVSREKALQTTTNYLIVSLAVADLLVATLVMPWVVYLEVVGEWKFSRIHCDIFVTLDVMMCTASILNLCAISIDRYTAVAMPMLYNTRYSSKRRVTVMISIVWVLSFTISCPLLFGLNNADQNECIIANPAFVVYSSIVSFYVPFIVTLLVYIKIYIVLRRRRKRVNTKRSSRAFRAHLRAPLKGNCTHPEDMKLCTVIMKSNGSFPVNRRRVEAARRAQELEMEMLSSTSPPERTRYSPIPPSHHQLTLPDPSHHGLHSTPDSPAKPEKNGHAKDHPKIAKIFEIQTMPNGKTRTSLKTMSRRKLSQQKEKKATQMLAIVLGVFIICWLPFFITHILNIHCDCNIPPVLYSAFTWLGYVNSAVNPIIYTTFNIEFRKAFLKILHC

[13] = biological target: D(1B) dopamine receptor (Homo sapiens) (UniProt P21918); assay: Displacement of [3H]SCH-23390 from recombinant human Dopamine D5 receptor expressed in CHO cell membranes at 10 uM after 120 mins relative to control
Chain of D(1B) dopamine receptor (Homo sapiens) (P21918 whole entry): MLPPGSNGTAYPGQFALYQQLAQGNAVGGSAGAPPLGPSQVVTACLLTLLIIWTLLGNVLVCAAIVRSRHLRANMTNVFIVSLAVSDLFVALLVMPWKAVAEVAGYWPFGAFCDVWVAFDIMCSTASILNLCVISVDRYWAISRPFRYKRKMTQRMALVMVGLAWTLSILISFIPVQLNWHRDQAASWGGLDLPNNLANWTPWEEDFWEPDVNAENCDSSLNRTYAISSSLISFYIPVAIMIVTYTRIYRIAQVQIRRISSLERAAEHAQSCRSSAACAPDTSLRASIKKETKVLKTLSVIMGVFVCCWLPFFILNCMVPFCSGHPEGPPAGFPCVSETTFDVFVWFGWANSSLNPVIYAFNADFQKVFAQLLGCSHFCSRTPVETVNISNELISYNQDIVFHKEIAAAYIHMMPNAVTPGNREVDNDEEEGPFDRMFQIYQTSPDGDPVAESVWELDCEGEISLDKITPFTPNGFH

[14] = biological target: D(3) dopamine receptor (Homo sapiens) (UniProt P35462); assay: Displacement of [3H]Spiperone from recombinant human Dopamine D3 receptor expressed in CHO cell membranes at 10 uM after 120 mins relative to control
Chain of D(3) dopamine receptor (Homo sapiens) (P35462 whole entry): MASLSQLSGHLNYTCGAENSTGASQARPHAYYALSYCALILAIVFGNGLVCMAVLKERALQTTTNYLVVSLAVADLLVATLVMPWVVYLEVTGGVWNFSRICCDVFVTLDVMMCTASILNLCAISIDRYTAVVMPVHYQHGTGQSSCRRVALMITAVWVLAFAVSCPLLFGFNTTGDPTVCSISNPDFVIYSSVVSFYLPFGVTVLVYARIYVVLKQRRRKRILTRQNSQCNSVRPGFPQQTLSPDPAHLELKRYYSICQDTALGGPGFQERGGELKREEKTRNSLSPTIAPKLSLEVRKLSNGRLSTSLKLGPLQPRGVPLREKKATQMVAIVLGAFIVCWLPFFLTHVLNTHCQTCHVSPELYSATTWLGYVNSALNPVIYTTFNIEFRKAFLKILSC

[15] = biological target: D(2) dopamine receptor (Homo sapiens) (UniProt P14416); assay: Displacement of [3H]Spiperone from recombinant human Dopamine D2S receptor expressed in CHO cell membranes at 10 uM after 120 mins relative to control
[16] = biological target: D(1A) dopamine receptor (Homo sapiens) (UniProt P21728); assay: Displacement of [3H]SCH-23390 from recombinant human Dopamine D1 receptor expressed in CHO cell membranes at 10 uM after 120 mins relative to control
Chain of D(1A) dopamine receptor (Homo sapiens) (P21728 whole entry): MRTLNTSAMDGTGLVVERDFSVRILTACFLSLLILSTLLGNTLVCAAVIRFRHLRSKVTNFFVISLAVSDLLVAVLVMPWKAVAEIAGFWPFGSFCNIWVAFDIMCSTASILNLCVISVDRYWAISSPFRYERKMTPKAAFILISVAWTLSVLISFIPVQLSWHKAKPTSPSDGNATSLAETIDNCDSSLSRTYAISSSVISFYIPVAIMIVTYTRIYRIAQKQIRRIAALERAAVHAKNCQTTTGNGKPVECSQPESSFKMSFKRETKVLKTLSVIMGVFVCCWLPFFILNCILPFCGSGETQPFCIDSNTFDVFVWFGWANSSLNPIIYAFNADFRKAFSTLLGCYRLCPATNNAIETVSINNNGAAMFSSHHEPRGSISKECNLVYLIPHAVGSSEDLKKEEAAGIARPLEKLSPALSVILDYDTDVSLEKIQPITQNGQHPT

CHO-K1 [17] = assay: Displacement of [3H] Spiperone from recombinant human Dopamine D4.4 receptor expressed in CHO-K1 cell membranes at 10 nM after 120 mins relative to control

SMILES	IC50 [2] [nM]	fraction unbound [3]	Drug uptake ([4]; in vivo, 0.25 h, BLD = below limit of detection)	CLint scaled [5] [mL/min/kg]	CLint scaled [7] [mL/min/kg]	concentration at 0.25 h [8] [ng/mL]	fraction unbound [9]	concentration at 0.25 h [4] [ng/g]	Kp at 0.25 h [11]	inhibition [12] [%]	inhibition [13] [%]	inhibition [14] [%]	inhibition [15] [%]	inhibition [16] [%]	inhibition (CHO-K1 [1]) [%]	Ki [2] [nM]	inhibition [6] [%]	inhibition [10] [%]	inhibition (CHO-K1 [17]) [%]
COc1ccc2c(CN3CCC(F)(F)[C@@H](CCc4ccc(F)cc4)C3)c[nH]c2c1	620	–	–	–	–	–	–	–	–	–	–	–	–	–	64	170	–	–	–
Fc1ccc2[nH]cc(CN3CCC(F)(F)[C@@H](CCc4ccccc4)C3)c2c1	–	0.001	Bld	70.5	1910	25.3	0.001	–	–	–	–	–	–	–	–	–	55	–	–
Fc1ccccc1CC[C@@H]1CN(Cc2c[nH]c3cc(Cl)ccc23)CCC1(F)F	190	0.002	–	156	1300	54.8	0.005	23.5	0.4	–	–	–	–	–	–	53	–	84	–
Fc1ccc(CC[C@H]2CN(Cc3c[nH]c4cc(F)ccc34)CCC2(F)F)cc1	320	–	–	–	–	–	–	–	–	< 50	< 50	52	< 50	< 50	–	89	–	75	–
FC1(F)CCN(Cc2c[nH]c3cc(Cl)ccc23)C[C@H]1CCc1ccccc1	64	–	–	–	–	–	–	–	–	–	–	–	–	–	–	17.7	–	59	–
Cc1ccc(CN2CCC(F)(F)[C@H](CCc3ccccc3)C2)cc1C	230	0.004	–	108	1670	44.4	0.005	93.7	2.1	–	–	–	–	–	–	63	77	–	–
Fc1ccc2c(CN3CCC(F)(F)[C@@H](CCc4ccccc4F)C3)c[nH]c2c1	490	–	–	–	–	–	–	–	–	57	< 50	54	< 50	< 50	–	140	–	66	–
COc1ccc2c(CN3CCC(F)(F)[C@@H](CCc4cccc(F)c4)C3)c[nH]c2c1	530	–	–	–	–	–	–	–	–	–	–	–	–	–	–	150	–	62	–
COc1ccc2cc(CN3CCC(F)(F)[C@H](CCc4ccccc4)C3)c(OC)nc2c1	88	–	–	–	–	–	–	–	–	–	–	–	–	–	–	24	–	53	–

The remaining molecules from weak to strong by IC50 [2], led by results:

IC50 [2] [nM]	fraction unbound [3]	Drug uptake ([4]; in vivo, 0.25 h, BLD = below limit of detection)	CLint scaled [5] [mL/min/kg]	CLint scaled [7] [mL/min/kg]	concentration at 0.25 h [8] [ng/mL]	fraction unbound [9]	concentration at 0.25 h [4] [ng/g]	Kp at 0.25 h [11]	inhibition [12] [%]	inhibition [13] [%]	inhibition [14] [%]	inhibition [15] [%]	inhibition [16] [%]	SMILES	inhibition (CHO-K1 [1]) [%]	Ki [2] [nM]	inhibition [6] [%]	inhibition [10] [%]	inhibition (CHO-K1 [17]) [%]
59	–	–	–	–	–	–	–	–	–	–	–	–	–	Fc1ccc2[nH]cc(CN3CCC(F)(F)[C@H](CCc4ccccc4)C3)c2c1	–	16.4	–	66	–
23	0.014	–	111	2490	28.6	0.001	100	3.5	–	–	–	–	–	Fc1ccc2c(CN3CCC(F)(F)[C@H](CCc4ccccc4)C3)c[nH]c2c1	–	6.3	–	79	–
21	0.003	–	99	582	14.9	0.001	19.6	1.3	51	< 50	< 50	< 50	< 50	Fc1ccc(CC[C@@H]2CN(Cc3c[nH]c4cc(Cl)ccc34)CCC2(F)F)cc1	85	5.8	–	–	–
18.6	0.002	–	300	1060	39	0.003	43.5	1.1	53	< 50	85	< 50	< 50	COc1ccc2c(CN3CCC(F)(F)[C@H](CCc4cccc(F)c4)C3)c[nH]c2c1	83	5.2	–	–	–
14.1	0.05	–	–	–	30.4	0.005	38.9	1.3	51	< 50	65	< 50	< 50	Fc1ccc2c(CN3CCC(F)(F)[C@H](CCc4ccccc4F)C3)c[nH]c2c1	85	3.9	–	–	–
7.4	0.011	–	–	–	13.2	0.004	25.5	1.9	53	< 50	85	< 50	< 50	Fc1ccc(CC[C@@H]2CN(Cc3c[nH]c4cc(F)ccc34)CCC2(F)F)cc1	–	2.1	–	–	59
7	0.009	–	298	957	9.2	0.018	30.3	3.3	67	< 30	52	< 30	< 30	COc1ccc2c(CN3CCC(F)(F)[C@H](CCc4ccc(F)cc4)C3)c[nH]c2c1	–	1.9	–	–	63
